According to US20260250318A1, “COMPOSITIONS AND METHODS FOR CROSSING THE BLOOD BRAIN BARRIER” (VOYAGER THERAPEUTICS, INC., priority 2022, published 2026):

Legend:
[1] = system: brains, heart, liver, muscle, and DRG of the NHPs; experiment: Maturation of TTM-001 and TTM-002 capsids, NGS enrichment in NHP tissues; type: in vivo; conditions: relative to AAV9 control
In short: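 Variants carry mutations within and flanking the loop IV peptide insert: positions 450–466 were triplet-randomized, while positions 449–466 received low-frequency point mutations. The combined pool went into two NHPs, and each peptide was scored by NGS enrichment ratio against AAV9.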

brain = experiment: Matured TTM-001 and TTM-002 variants, NGS enrichment in mouse brain; type: in vivo, mice; conditions: relative to AAV9 control
[2] = NGS fold-enrichment of matured AAV capsid variants, NHP brain, RNA
[3] = NGS fold-enrichment of RNA, NHP brain
[4] = NGS fold-enrichment, NHP liver DNA
[5] = NGS fold-enrichment, NHP liver RNA
[6] = NGS fold-enrichment, NHP muscle
[7] = NGS fold-enrichment, mouse brain
[8] = NGS fold-enrichment, DRG of NHPs
[9] = NGS fold-enrichment, RNA, brain of NHPs
[10] = NGS fold-enrichment, heart of NHPs
[11] = NGS fold-enrichment, liver DNA of NHPs
[12] = NGS fold-enrichment, liver RNA of NHPs
[13] = NGS fold-enrichment, muscle of NHPs
[14] = NGS fold-enrichment, brain of mice

| Sequence | Fold Enrichment relative to AAV9, Brain (NHP) [1, 2] | Fold Enrichment relative to AAV9, DRG (NHP) ([1]; NHP DRG) | Fold Enrichment relative to AAV9, Heart (NHP) ([1]; NHP heart) | Fold Enrichment relative to AAV9, Liver DNA (NHP) ([1]; NHP liver, DNA) | Fold Enrichment relative to AAV9, Liver RNA (NHP) ([1]; NHP liver, RNA) | Fold Enrichment relative to AAV9, Muscle (NHP) ([1]; NHP muscle) | Fold Enrichment relative to AAV9, Brain (Mouse) (brain; mouse brain) | Fold Enrichment relative to AAV9, Brain (NHP) [1, 3] | Fold Enrichment relative to AAV9, DRG (NHP) ([1]; NGS fold-enrichment, NHP DRG) | Fold Enrichment relative to AAV9, Heart (NHP) ([1]; NGS fold-enrichment, NHP heart) | Fold Enrichment relative to AAV9, Liver DNA (NHP) [1, 4] | Fold Enrichment relative to AAV9, Liver RNA (NHP) [1, 5] | Fold Enrichment relative to AAV9, Muscle (NHP) [1, 6] | Fold Enrichment relative to AAV9, Brain (Mouse) (brain; [7]) | further results |
| --- | --- | --- | --- | --- | --- | --- | --- | --- | --- | --- | --- | --- | --- | --- | --- |
| KTVNGSGSPHSKAQDKQT | 51.580 fold | 0.428 fold | 0.000 fold | 0.063 fold | 0.041 fold | 0.069 fold | 69.225 fold |  |  |  |  |  |  |  |  |
| KTINGHDSPHKIGLDQQT |  |  |  |  |  |  |  | 165.627 fold | 0.000 fold | 0.000 fold | 0.000 fold | 1.942 fold | 0.000 fold | 5.469 fold |  |
| KTSNGGGSPHSKAQNLQT |  |  |  |  |  |  |  |  |  |  |  |  |  |  | Fold Enrichment relative to AAV9, DRG (NHP) [1, 8]: 0.000 fold; Fold Enrichment relative to AAV9, Brain (NHP) [1, 9]: 68.311 fold; Fold Enrichment relative to AAV9, Heart (NHP) [1, 10]: 0.052 fold; Fold Enrichment relative to AAV9, Liver DNA (NHP) [1, 11]: 0.000 fold; Fold Enrichment relative to AAV9, Liver RNA (NHP) [1, 12]: 0.000 fold; Fold Enrichment relative to AAV9, Muscle (NHP) [1, 13]: 0.000 fold; Fold Enrichment relative to AAV9, Brain (Mouse) (brain; [14]): 124.871 fold |
| KTEVGHDSPHKSGQNQQT |  |  |  |  |  |  |  | 112.457 fold | 0.000 fold | 0.011 fold | 0.138 fold | 0.000 fold | 0.000 fold | 13.125 fold |  |
| KTINGHDSPHKSWVRQQT |  |  |  |  |  |  |  | 125.537 fold | 0.000 fold | 0.033 fold | 0.174 fold | 0.291 fold | 0.000 fold | 11.687 fold |  |
| KTVHGSGSPHSKAQSQQT | 51.057 fold | 0.000 fold | 0.000 fold | 0.146 fold | 0.143 fold | 0.000 fold | 54.185 fold |  |  |  |  |  |  |  |  |
| KTEKVSGSPHSKAQNQQT |  |  |  |  |  |  |  | 84.558 fold | 0.000 fold | 0.022 fold | 0.424 fold | 0.873 fold | 0.000 fold | 112.185 fold | Fold Enrichment relative to AAV9, DRG (NHP) [1, 8]: 0.000 fold; Fold Enrichment relative to AAV9, Brain (NHP) [1, 9]: 84.558 fold; Fold Enrichment relative to AAV9, Heart (NHP) [1, 10]: 0.022 fold; Fold Enrichment relative to AAV9, Liver DNA (NHP) [1, 11]: 0.424 fold; Fold Enrichment relative to AAV9, Liver RNA (NHP) [1, 12]: 0.873 fold; Fold Enrichment relative to AAV9, Muscle (NHP) [1, 13]: 0.000 fold; Fold Enrichment relative to AAV9, Brain (Mouse) (brain; [14]): 112.185 fold |
| KTVNGSGSPHSKAQLQQT | 58.681 fold | 0.315 fold | 0.465 fold | 0.333 fold | 0.529 fold | 0.045 fold | 81.201 fold |  |  |  |  |  |  |  |  |
| KTINGQDSPHKSGQNQDT |  |  |  |  |  |  |  | 82.075 fold | 0.000 fold | 0.067 fold | 0.144 fold | 0.225 fold | 0.000 fold | 9.626 fold |  |
